{"source": "ChEMBL document CHEMBL1649264", "about": "“ATP synthase inhibition of Mycobacterium avium is not bactericidal” (2009)", "type_in_all_cases": "functional", "key": {"[1]": {"system": "Mycobacterium avium", "assay": "Antitubercular activity against Mycobacterium avium infected in C57BL/6J mouse assessed as reduction of CFU counts in spleen at 150 mg/kg, sc administered one month post-infection five times weekly for 4 months (reference value: 8.9 +/- 0.3 log10CFU)", "details": "route subcutaneous"}, "[2]": {"system": "Mycobacterium avium", "assay": "Antitubercular activity against Mycobacterium avium infected in C57BL/6J mouse assessed as reduction of CFU counts in spleen at 150 mg/kg, sc administered one month post-infection five times weekly for 1 month (reference value: 7.4 +/- 1.7 log10CFU)", "details": "route subcutaneous"}, "[3]": {"system": "Mycobacterium avium", "assay": "Antitubercular activity against Mycobacterium avium infected in C57BL/6J mouse assessed as reduction of CFU counts in spleen at 25 mg/kg, po administered one month post-infection five times weekly for 2 months (reference value: 9.4 +/- 0.2 log10CFU)"}, "[4]": {"system": "Mycobacterium avium", "assay": "Antitubercular activity against Mycobacterium avium infected in C57BL/6J mouse assessed as reduction of CFU counts in spleen at 200 mg/kg, po administered one month post-infection five times weekly for 3 months (reference value: 7.9 +/- 0.7 log10CFU)"}, "[5]": {"system": "Mycobacterium avium", "assay": "Antitubercular activity against Mycobacterium avium infected in C57BL/6J mouse assessed as reduction of CFU counts in spleen at 150 mg/kg, sc administered one month post-infection five times weekly for 3 months (reference value: 7.9 +/- 0.7 log10CFU)", "details": "route subcutaneous"}, "[6]": {"system": "Mycobacterium avium", "assay": "Antitubercular activity against Mycobacterium avium infected in C57BL/6J mouse assessed as reduction of CFU counts in spleen at 25 mg/kg, po administered one month post-infection five times weekly for 4 months (reference value: 8.9 +/- 0.3 log10CFU)"}, "[7]": {"system": "Mycobacterium avium", "assay": "Antitubercular activity against Mycobacterium avium infected in C57BL/6J mouse assessed as reduction of CFU counts in spleen at 25 mg/kg, po administered one month post-infection five times weekly for 1 month (reference value: 7.4 +/- 1.7 log10CFU)"}, "[8]": {"system": "Mycobacterium avium", "assay": "Antitubercular activity against Mycobacterium avium infected in C57BL/6J mouse assessed as reduction of CFU counts in spleen at 200 mg/kg, po administered one month post-infection five times weekly for 2 months (reference value: 9.4 +/- 0.2 log10CFU)"}, "[9]": {"system": "Mycobacterium avium", "assay": "Antimicrobial activity against Mycobacterium avium"}, "[10]": {"system": "Mycobacterium tuberculosis", "assay": "Antimicrobial activity against Mycobacterium tuberculosis"}, "[11]": {"system": "Mycobacterium avium", "assay": "Antitubercular activity against Mycobacterium avium infected in C57BL/6J mouse assessed as reduction of CFU counts in spleen at 25 mg/kg, po administered one day post-infection five times weekly for 1 month (reference value: 8.0 +/- 0.9 log10CFU)"}, "[12]": {"system": "Mycobacterium avium", "assay": "Antitubercular activity against Mycobacterium avium infected in C57BL/6J mouse assessed as reduction of CFU counts in spleen at 25 mg/kg, po administered one month post-infection five times weekly for 3 months (reference value: 7.9 +/- 0.7 log10CFU)"}, "[13]": {"system": "Mycobacterium avium", "assay": "Antitubercular activity against Mycobacterium avium infected in C57BL/6J mouse assessed as reduction of CFU counts in spleen at 150 mg/kg, sc administered one month post-infection five times weekly for 2 months (reference value: 9.4 +/- 0.2 log10CFU)", "details": "route subcutaneous"}, "[14]": {"system": "Mycobacterium avium", "assay": "Antitubercular activity against Mycobacterium avium infected in C57BL/6J mouse assessed as reduction of CFU counts in spleen at 200 mg/kg, po administered one month post-infection five times weekly for 4 months (reference value: 8.9 +/- 0.3 log10CFU)"}, "[15]": {"system": "Mycobacterium avium", "assay": "Antitubercular activity against Mycobacterium avium infected in C57BL/6J mouse assessed as reduction of CFU counts in spleen at 200 mg/kg, po administered one month post-infection five times weekly for 1 month (reference value: 7.4 +/- 1.7 log10CFU)"}, "[16]": {"system": "Mycobacterium avium", "assay": "Antitubercular activity against Mycobacterium avium infected in C57BL/6J mouse assessed as reduction of CFU counts in spleen at 200 mg/kg, po administered one day post-infection five times weekly for 1 month (reference value: 8.0 +/- 0.9 log10CFU)"}}, "note": "“And” between values parts separate entries of the source, which are not always exact repeats. Equal values may be shown once."}
{"compound": "NCC[C@H](O)C(=O)N[C@@H]1C[C@H](N)[C@@H](O[C@H]2O[C@H](CN)[C@@H](O)[C@H](O)[C@H]2O)[C@H](O)[C@H]1O[C@H]1O[C@H](CO)[C@@H](O)[C@H](N)[C@H]1O", "note": "[AMIKACIN]", "values": [{"measurement": "log10cfu", "setting": "[1]", "result": 3.5}, {"measurement": "log10cfu", "setting": "[2]", "result": 5.9}, {"measurement": "log10cfu", "setting": "[3]", "result": 6.7}, {"measurement": "log10cfu", "setting": "[4]", "result": 7.2}]}
{"compound": "COc1nc2ccc(Br)cc2cc1[C@@H](c1ccccc1)[C@@](O)(CCN(C)C)c1cccc2ccccc12", "note": "[BEDAQUILINE]", "values": [{"measurement": "log10cfu", "setting": "[5]", "result": 6.6}, {"measurement": "log10cfu", "setting": "[6]", "result": 6.5}, {"measurement": "log10cfu", "setting": "[7]", "result": 6.5}, {"measurement": "log10cfu", "setting": "[8]", "result": 7.7}, {"measurement": "MIC", "setting": "[9]", "result": "0.007 µg/mL and 0.015 µg/mL"}, {"measurement": "MIC", "setting": "[10]", "result": 0.06, "unit": "µg/mL"}, {"measurement": "log10cfu", "setting": "[11]", "result": 5.4}]}
{"compound": "CC[C@H]1OC(=O)[C@H](C)[C@@H](O[C@H]2C[C@@](C)(OC)[C@@H](O)[C@H](C)O2)[C@H](C)[C@@H](O[C@@H]2O[C@H](C)C[C@H](N(C)C)[C@H]2O)[C@](C)(OC)C[C@@H](C)C(=O)[C@H](C)[C@@H](O)[C@]1(C)O", "note": "[CLARITHROMYCIN]", "values": [{"measurement": "log10cfu", "setting": "[12]", "result": 6.2}, {"measurement": "log10cfu", "setting": "[13]", "result": 5}, {"measurement": "log10cfu", "setting": "[14]", "result": 7.2}, {"measurement": "log10cfu", "setting": "[15]", "result": 6.6}, {"measurement": "log10cfu", "setting": "[16]", "result": 6}]}
